The subject of data set [1] is Escherichia coli K12 C600. The experiment in a line: Antibacterial test, agar plate dilution method. The following applies: Escherichia coli, K12C600; 37° C., 18 hours, MH agar; read-out: MIC. It is filed as cell-based.
Data set [2] concerns Micrococcus luteus ATCC9341. Briefly: Antibacterial test, agar plate dilution method. The following applies: Micrococcus luteus, ATCC9341, 18 h.
In data set [3] the test system is Bacillus subtilis ATCC6633. Briefly: Antibacterial test, agar plate dilution method. Conditions: Bacillus subtilis, ATCC6633, 18 h.
The subject of data set [4] is Enterobacter aerougenes ATCC13048. The experiment in a line: Antibacterial test, agar plate dilution method. The following applies: Enterobacter, ATCC13048, 18 h.
The test system of data set [5] is Salmonella typhimurium IID971. Briefly: Antibacterial test, agar plate dilution method. The following applies: Salmonella enterica, 18 h.
Data set [6] concerns Salmonella schottmuelleri 8006. The experiment in a line: Antibacterial test, agar plate dilution method. Conditions: Salmonella, 8006, 18 h.
The subject of data set [7] is Serratia marcescens IAM1184. The experiment in a line: Antibacterial test, agar plate dilution method. Conditions: Serratia marcescens, IAM1184, 18 h.
Data set [8] deals with Providencia rettgeri IFO 3850. The experiment in a line: Antibacterial test, agar plate dilution method. Conditions: Providencia rettgeri, IFO3850, 18 h.
For data set [9], the system named is Pseudomonas aeruginosa IFO 3445. Briefly: Antibacterial test, agar plate dilution method. The following applies: Pseudomonas aeruginosa, IFO3445, 18 h.
For data set [10], the system named is Pseudomonas aeruginosa NCTC 10490. The experiment in a line: Antibacterial test, agar plate dilution method. The following applies: Pseudomonas aeruginosa, NCTC10490, 18 h.
For data set [11], the system named is Enterobacter cloacae GN 7467. The experiment in a line: Antibacterial activity against clinically isolated β-lactamase producing strains. It is filed as cell-based. The following applies: Enterobacter cloacae, GN7467; cephalosporinase producing strain, 18 to 20 hours; read-out: MIC. The method, then: (§1) A solution of a cephalosporinase producing strain stored by Episome Research Institute, which was prepared by incubating the strain in a sensitivity test broth (STB; product of Nissui K.K.) for 18 hours, was diluted with a fresh STB solution to contain 10^5 cells per milliliter and the diluted solution was then inoculated as spots with a microplanter on a sensitivity disk agar-N (SDA; product of Nissui K.K.) containing a test compound. The disk agar was then incubated for 18 to 20 hours. A minimum inhibitory concentration was determined as a minimum concentration in which the test microorganism had no longer grown after a 18 to 20 hour incubation.

Data set [12] relates to Enterobacter cloacae GN 7471. The description is as above. Conditions: Enterobacter cloacae, GN7471; cephalosporinase producing strain, 18 to 20 hours; read-out: MIC. It is filed as cell-based. Here is the method: as §1
In the next data set the test system is Proteus vulgaris GN 76. The description is as above. It is filed as cell-based. The following applies: Proteus vulgaris, GN76. Here is the method:
as §1

Data set [13] deals with Pseudomonas aeruginosa GN 918. The data set is described as above. It is filed as cell-based. The following applies: Pseudomonas aeruginosa, GN918; cephalosporinase producing strain, 18 to 20 hours; read-out: MIC. Here is the method: as §1
Data set [14] deals with C. freundii resistant strains. The experiment in a line: Sensitivity test against clinical isolates, C. freundii resistant strains. Format: cell-based. Conditions: CFIX/CTX resistant strains. Here is the method:
Cefixime (CFIX) (50 to >100 μg/ml)
Cefotaxime (CTX) (50 to >100 μg/ml)
The tests were carried out in the same manner as described above Test 1.

Data set [15] has as its system Swine Kidney Dehydropeptidase-I (DHP-I). Briefly: Hydrolysis activity against DHP-I enzyme substrate by late assay. Format: in vitro ADME. The following applies: final substrate concentration 100 μM, 10 minutes, pH 7.1. Here is the method: (§2) The swine kidney (8 kg) was homogenized and an enzyme protein was allowed to precipitate. After a connective lipid was removed with acetone, the resultant material was made soluble by treatment with butanol and purified in the order by the ammonium sulfate fraction method, thereby producing DPH-I enzyme from a 75% ammonium sulfate fraction.
(§3) The DHP-I enzyme was then adjusted to give an enzyme concentration of 25 mg/10 ml (phosphate buffer, pH 7.1), and divided into 1 ml portions. The portions were frozen and stored at -40° C. or less until use.
(§4) As control compounds were employed glycyl dehydrophenylalanine (Gl-dh-Ph) and imipenem, and they were adjusted in situ each to give the concentration of 177 μM with the same sodium phosphate buffer solution.
To 1.2 ml of a 50 mM sodium phosphate buffer solution (substrate) containing 177 μM of each of Gh-dh-Ph and imipenem as the control compounds was added 0.2 ml of the DHP-I enzyme solution (25 mg/10 ml) prepared above in the final substrate concentration of 100 μM. The solution was then incubated at […] for 10 minutes. An initial velocity of hydrolysis of the substrate was measured from a decrease in absorbency at a particular λmax of each of the substrates.
A blank test was conducted in substantially the same manner as above by adding 0.2 ml of the sodium phosphate buffer solution (pH 7.1) to 1.2 ml of the above substrate.

The test system is the same in data set [16]. The experiment in a line: Stability of test compounds against DHP-I by HPLC. It is filed as in vitro ADME. The method, then: as §2, §3
As a test compound was used the compound (15) obtained in Example 6 that follows.
The test compounds was adjusted in situ to give the concentration of […] with a 50 mM sodium phosphate buffer solution (pH=7.1).
as §4
The test compound according to the present invention and the control compounds have been treated in substantially the same manner as (1) above. The incubation, however, was conducted at 37° C. for 4.5 hours or for 24 hours. A degree of the hydrolysis of the compounds each after the test periods of time was measured by the HPLC method.

In data set [17] the test system is Proteus mirabilis IFO3849. The experiment in a line: Antibacterial test, agar plate dilution method. Conditions: Proteus mirabilis, IFO3849, 18 h.
In another data set the test system is Proteus vulgaris OX-19. The experiment in a line: Antibacterial test, agar plate dilution method. The following applies: Proteus vulgaris, OX19, 18 h.
A further data set relates to Proteus vulgaris HX-19. The experiment in a line: Antibacterial test, agar plate dilution method. The following applies: Proteus vulgaris, HX19, 18 h.

Values after ≈ are worked out from the molar mass of the structure shown.

In general, MIC refers to the lowest concentration that inhibits growth of the organism. On to `Cc1nnc(SCC2=C(C(=O)O)N3C(=O)[C@@H](NC(=O)Cn4cnnn4)[C@H]3SC2)s1` [CEZ], for which the MIC is 0.78 µg/mL (≈ 1.72 µM) in data set [1]; 0.39 µg/mL (≈ 0.858 µM) in data set [2]; 0.1 µg/mL (≈ 0.22 µM) in [3]; more than 100 µg/mL in data set [4]; 0.78 µg/mL (≈ 1.72 µM) in [5]; 0.78 µg/mL (≈ 1.72 µM) in data set [6]. The MIC is more than 100 µg/mL in data set [7], 12.5 µg/mL (≈ 27.5 µM) in data set [8], more than 100 µg/mL in [9] and more than 100 µg/mL in data set [10].

For the compound `C[C@@H](O)[C@H]1C(=O)N2C(C(=O)O)=C(SCCN=CN)C[C@H]12` [Imipenem], the MIC in data set [1] came out at 3.13 µg/mL (≈ 10.5 µM); in data set [11], 0.78 µg/mL (≈ 2.61 µM); in [12] it was 0.2 µg/mL (≈ 0.668 µM); in the data set with Proteus vulgaris GN 76 it was 3.13 µg/mL (≈ 10.5 µM); in data set [13] it was 0.78 µg/mL (≈ 2.61 µM); in [2], 0.025 µg/mL (≈ 0.0835 µM). Further, the MIC in [3] was 0.025 µg/mL (≈ 0.0835 µM); in [4] it was 0.2 µg/mL (≈ 0.668 µM); in [5] it was 0.39 µg/mL (≈ 1.3 µM); in [6], 0.78 µg/mL (≈ 2.61 µM); in [7], 0.39 µg/mL (≈ 1.3 µM); in [17], 6.25 µg/mL (≈ 20.9 µM). For the same compound, the MIC (against Proteus vulgaris OX-19; against Proteus vulgaris HX-19; in [8]; in [9]; in data set [10]) was 0.78 µg/mL (≈ 2.61 µM) throughout. Besides, the “test microorganisms whose growth is inhibited” value in [14] (concentration of 0.78 μg/ml) is reported as “approximately 90%”; in [14] (concentration of 1.56 μg/ml), “all the test microorganisms”. In addition, the “initial velocity of hydrolysis against DHP-I” value in data set [15] was determined as 0.56 µM/min. For the same compound, in data set [16] (37° C. 4.5 hours, substrate concentration 100 μM, HPLC), the “Degree of hydrolysis by DHP-I” value amounted to 77.6 µM. Moreover, in data set [16] (after 24 hours at 37° C., footnote * of Table 3), the “Degree of hydrolysis by DHP-I (in words)” value was “imipenem has been decomposed and nothing remained was detected”.

The values above are taken from patent US4990613A, “(1R,5S,6S)-2-[(6,7-dih ydro-5H-pyrazolo[1,2-a][1,2,4]triazolium-6-yl)]thio-6-[R-1-hydroxyethyl]- 1-methyl-carbapenem-3-carboxylate and intermediate therefor” (Lederle (Japan), Ltd., priority 1987, dated 1991).
